Experimental data reported in publication PMC10246279, “Parasite proteostasis and artemisinin resistance” (Research Square, 2023).

How the values were obtained:
[1] = target: T1, P. falciparum proteasome, β5 (chymotrypsin-like) activity (Plasmodium falciparum, UniProt Q8IJT1); experiment: fluorogenic Suc-LLVY-AMC cleavage in lysate of drug-treated parasites; assay type: cell-based; details: read-out: % inhibition at 700 nM
T1 construct: gene PF3D7_1011400; native proteasome in NP-40 lysate of 26-30 hpi trophozoites; not purified; 20S core of four heptameric rings; with Proteasome subunit beta type-7 (beta2 catalytic subunit); Proteasome subunit beta type-6 (beta1 catalytic subunit)

[2] = target: T2, P. falciparum proteasome, β2 (trypsin-like) activity (Plasmodium falciparum, UniProt Q8I6T3); experiment: fluorogenic Ac-RLR-AMC cleavage in lysate of drug-treated parasites; assay type: cell-based; details: read-out: % inhibition at 700 nM
T2 construct: gene PF3D7_1328100; native proteasome in NP-40 lysate of 26-30 hpi trophozoites; not purified; 20S core of four heptameric rings; with Proteasome subunit beta type-5; Proteasome subunit beta type-6 (beta1 catalytic subunit)

[3] = test system: T3, P. falciparum proteasome, β1 (caspase-like) activity; details: live trophozoites treated 3 h, then lysed; K13 C580Y background; effect may be indirect
T3 construct: gene beta1

[4] = target: T4, P. falciparum proteasome, β1 (caspase-like) activity (Plasmodium falciparum, UniProt Q8I0U7); experiment: fluorogenic Ac-nLPnLD-AMC cleavage in lysate of drug-treated parasites; assay type: cell-based; details: read-out: % inhibition at 700 nM
T4 construct: gene PF3D7_0931800; native proteasome in NP-40 lysate of 26-30 hpi trophozoites; not purified; 20S core of four heptameric rings; with Proteasome subunit beta type-7 (beta2 catalytic subunit); Proteasome subunit beta type-5

[5] = test system: T5, P. falciparum proteasome, β5 (chymotrypsin-like) activity; details: live trophozoites treated 3 h, then lysed; K13 C580Y background; effect may be indirect
T5 construct: gene beta5

T1 sequence (Q8IJT1 entry or part of it): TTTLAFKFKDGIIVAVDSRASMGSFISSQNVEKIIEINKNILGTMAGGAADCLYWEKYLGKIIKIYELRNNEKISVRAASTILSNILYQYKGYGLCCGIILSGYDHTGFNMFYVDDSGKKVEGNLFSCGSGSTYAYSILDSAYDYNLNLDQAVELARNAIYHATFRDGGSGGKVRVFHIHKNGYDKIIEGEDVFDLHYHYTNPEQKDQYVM
T2 sequence (Q8I6T3 entry or part of it): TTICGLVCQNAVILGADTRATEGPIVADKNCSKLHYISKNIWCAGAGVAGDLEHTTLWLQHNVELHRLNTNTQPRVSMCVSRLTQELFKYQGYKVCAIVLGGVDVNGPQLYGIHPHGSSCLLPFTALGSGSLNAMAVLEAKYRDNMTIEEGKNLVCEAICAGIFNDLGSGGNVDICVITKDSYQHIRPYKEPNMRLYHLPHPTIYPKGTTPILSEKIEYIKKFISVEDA
T4 sequence (Q8I0U7 entry or part of it): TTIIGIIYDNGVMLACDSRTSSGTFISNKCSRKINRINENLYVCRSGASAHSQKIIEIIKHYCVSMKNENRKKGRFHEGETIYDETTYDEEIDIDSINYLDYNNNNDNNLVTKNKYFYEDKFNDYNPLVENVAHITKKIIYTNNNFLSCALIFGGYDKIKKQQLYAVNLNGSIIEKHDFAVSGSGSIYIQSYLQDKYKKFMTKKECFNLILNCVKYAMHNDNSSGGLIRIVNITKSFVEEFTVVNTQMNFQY

Row | SMILES | inhibition at 0.7 µM [1] | inhibition at 0.7 µM [2] | % inhibition at 50 nM [3] | inhibition at 0.7 µM [4] | % inhibition at 3 μM [5]
1 | C[C@@H]1CC[C@H]2[C@@H](C)C(O)O[C@@H]3O[C@@]4(C)CC[C@@H]1[C@]32OO4 (some centres unmarked) [DHA] | ~60% | ~40% | 49% | ~40% | –
2 | c1cc(C2CCC3(CC2)OOC2(O3)C3CC4CC(C3)CC2C4)ccc1OCCN1CCOCC1 (centres unmarked) [OZ439] | – | – | – | – | 52%
